“Also recorded” adds a separate entry of the source. Ends that are not written are not given here.
What was measured:
[1] = test system: G1 Fab binding to human α-CGRP on the chip; experiment: Epitope mapping of antibody G1 by peptide competition using Biacore; settings: for percentage of binding of G1 Fab to human α-CGRP blocked by competing peptide: 10 uM peptide in 50 nM G1 Fab (2000:1 mol peptide/Fab), FIG. 6
Text: N-biotinylated human α-CGRP was captured on SA sensor chip. […] Y axis represents percentage of binding blocked by the presence of the competing peptide compared with the binding in the absence of the competing peptide.
Human α-CGRP was purchased as an N-biotinylated version to enable its high-affinity capture via SA sensor chips. […] All these peptides are amidated at the C-terminus.

[2] = test system: CRTC1 shuttling in DRG neurons; experiment: CRTC1 nuclear shuttling in dissociated DRG neuronal cultures (immunostaining); type: cell-based, mouse
[3] = Indirect calorimetry (RER, oxygen consumption) of old wild-type mice treated with CGRP8-37 by osmotic pump; type: in vivo, mouse; settings: old (22-23 months) male WT C57BL/6J mice, osmotic pumps, 5.5 mg/mL, after 6 weeks of treatment
Experimental: FIGS. 15A-15C: Insulin secretion assay of mouse insulinoma cells (MIN6) upon 16.8 mM glucose stimulation. Cells were incubated with 0.1-0.5 μM synthetic peptides for FIG. 15A: rat CGRPα, FIG. 15B: rat CGRPβ and FIG. 15C: rat Substance P, n=4, means±S.E.M, **p<0.01, *p<0.05, Student's t test. FIG. 15D: Serum levels of CGRP measured by ELISA in blood samples from WT and TRPV1 mutants at 3 and 24 months, n=7, means±S.E.M. a, ns and b, p<0.05. FIG. 15E: Respiratory exchange ratio (RER) analysis and oxygen consumption FIG. 15F: of 23 months old male WT animals treated with CGRP8-37 or vehicle control, n=10, means±S.E.M.,**p<0.01, *p<0.05, Student's t test.
Indirect calorimetric studies were conducted in a Comprehensive Lab Animal Monitoring System (Columbus Instruments). For GTT and GSIS, glucose (2 g/kg weight) was intraperitoneally administered and blood glucose was measured from tail bleeds at indicated times after injection using a One Touch Ultra glucometer (LifeScan). For the ITT, 5 hour fasted mice were injected with 1 u/kg of human insulin (Humulin; Eli Lily) and glucose was measured as in the GTT. […] Serum insulin was measured using an UltraSensitive Insulin ELISA kit (Crystal Chem). Serum levels of fasted leptin, adiponectin were measured using Quantikine ELISA Kits (R&D systems). […] CGRP was measured using ELISA (EIAab). […]

MIN6 cells = experiment: Insulin secretion assay of mouse insulinoma cells (MIN6) upon glucose stimulation; type: cell-based; settings: 16.8 mM glucose; for effect on glucose-stimulated insulin release: 100 nM to 500 nM peptide, FIGS. 15A-C, 16A
Experimental: FIGS. 15A-15C: Insulin secretion assay of mouse insulinoma cells (MIN6) upon 16.8 mM glucose stimulation.
FIGS. 16A-16C illustrate insulin secretion and inflammation of the TRPV1 mutant mice. FIG. 16A: Insulin secretion assay of mouse insulinoma cells (MIN6) upon 16.8 mM glucose stimulation with 0.1-0.5 μM synthetic human CGRPα. FIG. 16B: Insulin secretion assay (MIN6) upon 16.8 mM glucose and exendin 4 stimulation.
MIN6 insulinoma cells were obtained at passage 18 from Ulupi Jhala (UCSD, La Jolla, Calif.) and were cultured in DMEM (Life technologies) containing 11 mM glucose, 10% FBS, Glutamax (Invitrogen) and 10 μM β-mercapthoethanol as previously described (Huising et al., Proc. Natl. Acad. Sci. 107:912-917, 2010). Glucose stimulation was performed at low (2.8 mM) and high (16.8 mM). Treatments were diluted in Krebs-Ringer bicarbonate buffer with 2.8 mM glucose.
To mimic pancreatic β-cell glucose mediated insulin release, mouse insulinoma MIN6 cells were used (Huising et al., Proc. Natl. Acad. Sci. 107:912-917, 2010).

Chain of G1 Fab binding to human α-CGRP on the chip (as listed by the source): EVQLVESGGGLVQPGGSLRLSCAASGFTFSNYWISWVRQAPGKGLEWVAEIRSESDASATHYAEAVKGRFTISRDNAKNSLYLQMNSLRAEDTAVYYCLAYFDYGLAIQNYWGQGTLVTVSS
Chain of G1 Fab binding to human α-CGRP on the chip (as listed by the source): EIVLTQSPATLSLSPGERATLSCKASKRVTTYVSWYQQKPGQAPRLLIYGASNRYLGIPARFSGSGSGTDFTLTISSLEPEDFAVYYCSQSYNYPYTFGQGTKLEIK

For “1-37 of β-CGRP (WT): human β-CGRP 1-37, SEQ ID NO: 43, ACNTATCVTHRLAGLLSRSGGMVKSNFVPTNVGSKAF, C-terminally amidated”, the “percentage of binding of G1 Fab to human α-CGRP blocked by competing peptide” value (“percentage of binding of G1 Fab” below) [1] was 100%.

With “8-37: human α-CGRP fragment 8-37, SEQ ID NO: 16, VTHRLAGLLSRSGGVVKNNFVPTNVGSKAF, C-terminally amidated [Clone 8-37]” the “percentage of binding of G1 Fab” value [1] was 100%.

In the case of “26-37: human α-CGRP fragment 26-37, SEQ ID NO: 35, NFVPTNVGSKAF, C-terminally amidated [Clone 26-37]”, the “percentage of binding of G1 Fab” value [1] is reported as 100%.

For `COc1cc(CNC(=O)CCCC/C=C/C(C)C)ccc1O` [Cap, capsaicin], the CRTC1 nuclear localization [2] was “accumulation of CRTC1 in the nuclei of TRPV1-positive cells” and the “Cap-induced CRTC1 shuttling” value ([2]; TRPV1 mutant DRG neurons, Cap 1 μM, FIG. 14C) was “abolished”.

For `COc1cccc(NC(=O)/C=C/c2ccc(Cl)cc2)c1` [SB-366791], the “CRTC1 nuclear localization after blockade of TRPV1” value ([2]; WT DRG neurons, pretreatment prior to stimulation with FSK and Cap, 10 μM or 2 μM, FIG. 14D) was “robust nuclear exclusion of CRTC1”.

For `NC1=N[C@H](O)[C@H]2[C@H]3O[C@]4(O)O[C@@H]([C@@H](O)[C@@]2(N1)[C@@H]4O)[C@]3(O)CO` [TTX, Tetrodotoxin], the “distribution of CRTC1” value [2] was “remained mostly cytoplasmic”.

For “CGRP 8-37: positive control compound (vasodilatation antagonist); CGRP receptor antagonist (Tocris Bioscience) (VTHRLAGLLSRSGGVVKNNFVPTNVGSKAF-NH2; UniProt P06881 90-119, looked up, fragment)”, the oxygen consumption ([3]; vs controls) was “increased” and the “respiratory exchange ratio (RER), metabolic circadian shift from night to day” value ([3]; vs vehicle) was “reappearance of a more youthful metabolic circadian shift from night to day”.

For “G1: humanized IgG2 monoclonal anti-CGRP antagonist antibody; VH SEQ ID NO: 1, VL SEQ ID NO: 2; ATCC PTA-6867 and PTA-6866 [Clone G1]”, the “epitope on human α-CGRP that is recognized by antibody G1” value ([1]; Biacore peptide competition and variant affinities) was “targets a C-terminal epitope of CGRP; also recorded: binds to a C-terminal epitope with F37 and G33 being the most important residues; also recorded: on the C-terminal end of human α-CGRP”.

For “K35A (19-37): human α-CGRP mutant fragment, SEQ ID NO: 19, SGGVVKNNFVPTNVGSAAF, C-terminally amidated (SGGVVKNNFVPTNVGSAAF-NH2; listed as Homo sapiens)”, the “percentage of binding of G1 Fab” value [1] was 100%.

For “K35E (19-37): human α-CGRP mutant fragment, SEQ ID NO: 20, SGGVVKNNFVPTNVGSEAF, C-terminally amidated (SGGVVKNNFVPTNVGSEAF-NH2; listed as Homo sapiens)”, the “percentage of binding of G1 Fab” value [1] was 100%.

For “K35M (19-37): human α-CGRP mutant fragment, SEQ ID NO: 21, SGGVVKNNFVPTNVGSMAF, C-terminally amidated (SGGVVKNNFVPTNVGSMAF-NH2; listed as Homo sapiens)”, the “percentage of binding of G1 Fab” value [1] was 100%.

In the case of “P29A (19-37): human α-CGRP mutant fragment, SEQ ID NO: 18, SGGVVKNNFVATNVGSKAF, C-terminally amidated (SGGVVKNNFVATNVGSKAF-NH2; listed as Homo sapiens)”, the “percentage of binding of G1 Fab” value [1] is reported as 100%.

For “rat α-CGRP: rat α-CGRP 1-37, SEQ ID NO: 41, SCNTATCVTHRLAGLLSRSGGVVKDNFVPTNVGSEAF”, the “percentage of binding of G1 Fab” value [1] was 100%, the “reduction of insulin release, % of the maximum insulin response” value (MIN6 cells; 100 nM peptide) was 46% and the “effect on glucose-stimulated insulin release” value (“effect” for short) (MIN6 cells) was “insulin release was greatly blunted”.

In the case of “rat β-CGRP: rat β-CGRP 1-37, SEQ ID NO: 44, SCNTATCVTHRLAGLLSRSGGVVKDNFVPTNVGSKAF”, the “percentage of binding of G1 Fab” value [1] is reported as 100%, the “effect” value (MIN6 cells) is reported as “insulin release was greatly blunted” and the “reduction of insulin release, % of the maximum insulin response” value (MIN6 cells; 500 nM peptide) is reported as 58%.

In the case of “substance P (RPKPQQFFGLM-NH2; ends and bridges not checked; UniProt P06767 58-68, looked up) [TRPV1 secreted neuropeptide; synthetic rat peptide]”, the “effect” value (MIN6 cells) is reported as “did not alter insulin secretion”.

From US20170037117A1, “COMPOSITIONS AND METHODS FOR TREATING METABOLIC DISORDERS” (Salk Institute for Biological Studies, priority 2014, published 2017)
